Blank lines part the entries; values can stand above or below the molecule they belong to.
Key:
M07e cells = assay: Cellular proliferation, [3H]thymidine uptake, Kit ligand dependent growth; type: cell-based; conditions: Homo sapiens, M-07e, read-out: IC50, M07e cells proliferation
Experimental: The immortalized human hematopoietic Philadelphia chromosome-positive cytokine independent R10(−) M07e^p210 cell line (46) was maintained in Iscove's modified Dulbecco's medium (Life Technologies, Inc., Grand Island, N.Y.) containing 10% FCS (Hyclone, Logan, Utah). The parental M07e megakaryoblastic cell line was a kind gift of Brian Druker and was maintained in the presence of 50 ng/mL kit ligand (SCF) as described (46-47) K562 was obtained from the ATCC. K562 was maintained in suspension in 90% RPMI 1640 medium supplemented with 10% FBS, 2 mM L-glutamine, 10 mM HEPES, 1 mM sodium pyruvate, 1.5 g/L sodium bicarbonate, 4.5 g/L […], 10% FBS, 100 IU/mL penicillin and 100 μg/ml streptomycin. Tumor cell cultures were maintained in a humidified atmosphere with 5% CO2 at 37° C. (NuAire).
. Data points for all assays were obtained in triplicate, and background incorporation from cell-free wells was determined and subtracted from all data points. The data was analyzed using a non-linear regression fit to a sigmoidal dose-response curve using Prism 4 (GraphPad Software, Inc).

[1] = test system: H1975 and H1975-DR lung cancer xenografts; assay: microPET competitive inhibition of tracer uptake by unlabeled Dasatinib; type: in vivo, SCID mouse
[2] = oral dasatinib therapy; cited from earlier work
ACK = molecular target: T1, ACK (Homo sapiens, UniProt Q07912); assay: QuickScout ELISA kinase panel; type: biochemical
T1 construct: purchased Carna Biosciences (QuickScout service)
Excerpt: (§1) . […] An ELISA-based assay was used in which the phosphorylation of an oligopeptide substrate was detected by an HRP-conjugated anti-p-Tyr (PY20) probe. […]. The data appears in Table 2 in Example 3.

CSK = molecular target: T2, CSK (Homo sapiens, UniProt P41240); assay: QuickScout ELISA kinase panel; type: biochemical
T2 construct: purchased Carna Biosciences (QuickScout service)
Excerpt: as §1

EphA2 = molecular target: T3, EphA2 (Homo sapiens, UniProt P29317); assay: QuickScout ELISA kinase panel; type: biochemical
T3 construct: purchased Carna Biosciences (QuickScout service)
Excerpt: as §1

EphB4 = molecular target: T4, EphB4 (Homo sapiens, UniProt P54760); assay: QuickScout ELISA kinase panel; type: biochemical
T4 construct: purchased Carna Biosciences (QuickScout service)
Excerpt: as §1

FLT3 = molecular target: T5, FLT3 (Homo sapiens, UniProt P36888); assay: QuickScout ELISA kinase panel; type: biochemical
T5 construct: purchased Carna Biosciences (Kobe, Japan), QuickScout service
Excerpt: as §1

JAK3 = molecular target: T6, JAK3 (Homo sapiens, UniProt P52333); assay: QuickScout ELISA kinase panel; type: biochemical
T6 construct: purchased Carna Biosciences (QuickScout service)
Excerpt: as §1

MET = molecular target: T7, MET (Homo sapiens, UniProt P08581); assay: QuickScout ELISA kinase panel; type: biochemical
T7 construct: purchased Carna Biosciences (QuickScout service)
Excerpt: as §1

PDGFR— = molecular target: T8, PDGFR— (Homo sapiens, UniProt P16234); assay: QuickScout ELISA kinase panel; type: biochemical
T8 construct: purchased Carna Biosciences (Kobe, Japan), QuickScout service
Excerpt: as §1

TEC = molecular target: T9, TEC (Homo sapiens, UniProt P42680); assay: QuickScout ELISA kinase panel; type: biochemical
T9 construct: purchased Carna Biosciences (Kobe, Japan), QuickScout service
T9 sequence (P42680 1-631): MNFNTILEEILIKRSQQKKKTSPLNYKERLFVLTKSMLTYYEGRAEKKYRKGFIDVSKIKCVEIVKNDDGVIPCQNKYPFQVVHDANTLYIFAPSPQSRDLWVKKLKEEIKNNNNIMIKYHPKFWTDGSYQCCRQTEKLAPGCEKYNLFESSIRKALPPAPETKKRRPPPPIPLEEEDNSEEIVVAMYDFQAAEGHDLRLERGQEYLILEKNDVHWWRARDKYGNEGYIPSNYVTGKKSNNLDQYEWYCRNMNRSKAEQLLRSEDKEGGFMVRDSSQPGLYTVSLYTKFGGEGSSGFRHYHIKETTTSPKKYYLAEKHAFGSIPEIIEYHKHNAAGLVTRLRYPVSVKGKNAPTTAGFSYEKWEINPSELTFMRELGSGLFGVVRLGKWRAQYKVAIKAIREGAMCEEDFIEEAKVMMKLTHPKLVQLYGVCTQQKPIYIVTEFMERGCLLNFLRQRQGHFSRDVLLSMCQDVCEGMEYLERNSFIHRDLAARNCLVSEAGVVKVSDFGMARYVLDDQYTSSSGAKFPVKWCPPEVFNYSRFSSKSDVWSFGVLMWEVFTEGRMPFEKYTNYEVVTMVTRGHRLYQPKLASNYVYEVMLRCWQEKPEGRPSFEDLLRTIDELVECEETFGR
Excerpt: as §1

TYRO3 = molecular target: T10, TYRO3 (Homo sapiens, UniProt Q06418); assay: QuickScout ELISA kinase panel; type: biochemical
T10 construct: purchased Carna Biosciences (QuickScout service)
Excerpt: as §1

SRC = SRC (Homo sapiens, UniProt P12931); assay: biochemical
Excerpt: (§2) An ELISA-based assay was used in which the phosphorylation of an oligopeptide substrate was detected by an HRP-conjugated anti-p-Tyr (PY20) probe.

EGFR = molecular target: T11, EGFR (Homo sapiens, UniProt P00533); assay: QuickScout ELISA kinase panel; type: biochemical; conditions: Table 3
T11 construct: purchased Carna Biosciences (QuickScout service)
Excerpt: as §2

FGFR1 = molecular target: T12, FGFR1 (Homo sapiens, UniProt P11362); assay: QuickScout ELISA kinase panel; type: biochemical; conditions: Table 3
T12 construct: purchased Carna Biosciences (QuickScout service)
Excerpt: as §2

KIT = molecular target: T13, KIT (Homo sapiens, UniProt P10721); assay: QuickScout ELISA kinase panel; type: biochemical; conditions: Table 3
T13 construct: purchased Carna Biosciences (Kobe, Japan), QuickScout service
Excerpt: as §2

[3] = In vivo metabolism in mice (blood/plasma radio-HPLC); conditions: for Peak 3 [18F]-5 (16.9 min) % Radioactivity, parent: plasma
Experimental: Mice were injected i.v. with [^18F]-5 in the tail vein and sacrificed using carbon dioxide at 30, 60 and 120 min post injection. Each group contained three mice. Immediately after sacrifice, about 0.5 ml of blood was collected by cardiac puncture and deposited in a 1.5 ml Eppendorf tube. Disodium EDTA (2.5 mg) was used as anticoagulant. The samples were then maintained at 4° C. for subsequent procedures. The total radioactivity in each total blood sample was counted. The samples were then centrifuged at 4° C. at 2200×g. Radioactivity of the serum and pellet measured and about 50% of the total radioactivity was retained in the pellet. The serum was transferred to a 1.5 ml Eppendorf tube containing about […] of 60% acetonitrile in water and centrifuged again to precipitate any residual proteins. The supernatant was analyzed using HPLC and examined for metabolites. HPLC was carried out on a C-18 Shimadzu 4.6×250 mm HPLC column and eluted under gradient conditions 80% A (pH 5.5 50 mM NaOAc):20% B (CH3CN) to 20% A:80% B at 1 ml/min. Radioactivity was detected using Packard Radiomatic FLO-One/beta detector equipped with a PET flow cell containing BGO (bismuthgermanate) windows.

[4] = test system: K562 (CML) tumor xenografts; assay: microPET imaging of K562 xenograft; type: in vivo, athymic nu/nu mice
Experimental: All animal studies were carried out within the framework of an institutional IACUC approved protocol (No. 86-02-020). Athymic nu/nu mice (National Cancer Institute, Bethesda, Md.) were inoculated subcutaneously onto the right shoulder with 1×10^7 K562 cells mixed with Matrigel (BD Biosciences, San Jose, Calif.). K562 is a chronic myelogenous leukemia cell line cultured with IMDM (Iscove's modified Dulbecco's medium; prepared in-house) containing 4 mM L-glutamine, 1.5 g/L sodium bicarbonate, and 10% fetal bovine serum.
Three weeks following tumor inoculation, PET images of mice were obtained using FOCUS 120 microPET™ scanner (Siemens Preclinical Solutions, Knoxyille, Tenn.) with [^18F]-5. Mice were injected intravenously (via tail vein) with 14±1 MBq (375±25 μCi) of [^18F]-5 and imaged 60 minutes later under 2% (at 1 L/min) isoflurane anesthesia (Forane, Baxter Healthcare, Deerfield, Ill.). Image acquisition time was 15 min (t=60 to 75 min) using a 250-750 keV energy window and a 6 nsec timing window. List-mode data were sorted into sinograms by Fourier re-binning and reconstructed by filter back-projection without attenuation correction. Count data in the reconstructed images were converted to activity concentration (i.e. % of the injected dose per gram (% ID/gm)) using a system calibration factor determined using a ^18F-filled mouse-sized phantom. Visualization and analyses of microPET images were carried out using AsiPRO™ software (Siemens Preclinical Solutions, Knoxyille, Tenn.).
In vivo results have been obtained in athymic mice bearing subcutaneous K562 (CML) tumor xenografts in the right shoulder. [^18F]-5 (14±1 MBq, 375±25 μCi) was injected through the tail vein and the subjects were imaged in a microPET scanner. […] Tracer activity was evident within the tumor xenograft (white arrow) and was determined to be 1.1% of the injected dose by ROI (region of interest) analysis. […] The transaxial image was taken at the level of the known palpable tumor as shown in the coronal section (broken line). The intensity of the radiotracer activity is color-graded as depicted by the colored scale.

ABL = ABL (Homo sapiens, UniProt P00519); assay: QuickScout ELISA kinase panel; type: biochemical; parameters: purchased Carna Biosciences (QuickScout service); conditions: Table 3
Excerpt: as §2

T1 sequence (Q07912 whole entry): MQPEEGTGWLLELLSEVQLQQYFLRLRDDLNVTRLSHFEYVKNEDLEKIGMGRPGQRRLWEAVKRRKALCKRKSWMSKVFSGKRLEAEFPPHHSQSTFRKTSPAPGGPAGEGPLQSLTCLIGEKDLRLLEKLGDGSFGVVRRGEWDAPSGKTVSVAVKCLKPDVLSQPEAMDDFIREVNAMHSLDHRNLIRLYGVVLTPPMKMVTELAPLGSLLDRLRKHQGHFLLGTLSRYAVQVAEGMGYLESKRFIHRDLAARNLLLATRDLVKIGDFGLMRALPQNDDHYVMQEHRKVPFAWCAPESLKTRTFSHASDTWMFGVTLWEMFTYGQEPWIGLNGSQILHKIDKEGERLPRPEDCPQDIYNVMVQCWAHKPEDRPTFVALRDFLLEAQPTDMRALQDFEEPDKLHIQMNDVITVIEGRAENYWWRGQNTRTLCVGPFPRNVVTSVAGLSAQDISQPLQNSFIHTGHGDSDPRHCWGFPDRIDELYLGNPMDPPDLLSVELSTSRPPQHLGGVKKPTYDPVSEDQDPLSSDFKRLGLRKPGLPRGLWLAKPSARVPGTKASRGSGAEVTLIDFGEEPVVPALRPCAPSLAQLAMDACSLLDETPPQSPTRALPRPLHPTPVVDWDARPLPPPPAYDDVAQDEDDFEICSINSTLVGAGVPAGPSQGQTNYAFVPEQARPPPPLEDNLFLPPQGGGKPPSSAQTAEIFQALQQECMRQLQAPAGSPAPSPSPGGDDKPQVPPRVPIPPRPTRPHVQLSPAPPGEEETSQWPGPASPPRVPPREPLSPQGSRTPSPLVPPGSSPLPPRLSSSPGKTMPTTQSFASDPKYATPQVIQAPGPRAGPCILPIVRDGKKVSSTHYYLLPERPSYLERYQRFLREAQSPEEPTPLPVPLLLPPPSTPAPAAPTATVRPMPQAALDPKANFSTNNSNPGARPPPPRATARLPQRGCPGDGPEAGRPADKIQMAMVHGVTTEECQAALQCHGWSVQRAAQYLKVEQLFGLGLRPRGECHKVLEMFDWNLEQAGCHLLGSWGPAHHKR
T4 sequence (P54760 16-987): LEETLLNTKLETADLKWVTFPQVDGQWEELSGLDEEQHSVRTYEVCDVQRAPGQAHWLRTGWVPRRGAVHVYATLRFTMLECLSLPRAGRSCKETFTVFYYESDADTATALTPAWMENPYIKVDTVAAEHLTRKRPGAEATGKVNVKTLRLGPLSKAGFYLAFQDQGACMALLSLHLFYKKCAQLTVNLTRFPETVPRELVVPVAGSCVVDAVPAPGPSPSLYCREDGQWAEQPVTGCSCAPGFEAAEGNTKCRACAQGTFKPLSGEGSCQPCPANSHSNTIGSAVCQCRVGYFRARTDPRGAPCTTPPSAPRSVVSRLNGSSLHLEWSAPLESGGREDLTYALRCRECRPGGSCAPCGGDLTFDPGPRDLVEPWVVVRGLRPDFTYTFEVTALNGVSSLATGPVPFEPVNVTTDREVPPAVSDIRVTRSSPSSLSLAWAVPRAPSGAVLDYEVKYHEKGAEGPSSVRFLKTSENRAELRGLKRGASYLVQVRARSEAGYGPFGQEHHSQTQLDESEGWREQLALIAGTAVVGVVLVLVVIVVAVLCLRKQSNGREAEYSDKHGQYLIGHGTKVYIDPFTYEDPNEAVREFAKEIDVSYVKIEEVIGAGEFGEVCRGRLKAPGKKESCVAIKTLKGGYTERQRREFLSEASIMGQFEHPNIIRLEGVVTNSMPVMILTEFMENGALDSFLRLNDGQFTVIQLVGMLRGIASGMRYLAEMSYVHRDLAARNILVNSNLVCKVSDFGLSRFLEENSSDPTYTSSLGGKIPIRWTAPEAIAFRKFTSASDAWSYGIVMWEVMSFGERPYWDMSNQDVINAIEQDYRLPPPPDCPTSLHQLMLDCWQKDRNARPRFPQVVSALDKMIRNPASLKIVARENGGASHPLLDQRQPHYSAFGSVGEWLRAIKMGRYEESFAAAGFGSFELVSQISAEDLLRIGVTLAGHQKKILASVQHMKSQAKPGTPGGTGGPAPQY
T8 sequence (P16234 550-1089 limits assumed): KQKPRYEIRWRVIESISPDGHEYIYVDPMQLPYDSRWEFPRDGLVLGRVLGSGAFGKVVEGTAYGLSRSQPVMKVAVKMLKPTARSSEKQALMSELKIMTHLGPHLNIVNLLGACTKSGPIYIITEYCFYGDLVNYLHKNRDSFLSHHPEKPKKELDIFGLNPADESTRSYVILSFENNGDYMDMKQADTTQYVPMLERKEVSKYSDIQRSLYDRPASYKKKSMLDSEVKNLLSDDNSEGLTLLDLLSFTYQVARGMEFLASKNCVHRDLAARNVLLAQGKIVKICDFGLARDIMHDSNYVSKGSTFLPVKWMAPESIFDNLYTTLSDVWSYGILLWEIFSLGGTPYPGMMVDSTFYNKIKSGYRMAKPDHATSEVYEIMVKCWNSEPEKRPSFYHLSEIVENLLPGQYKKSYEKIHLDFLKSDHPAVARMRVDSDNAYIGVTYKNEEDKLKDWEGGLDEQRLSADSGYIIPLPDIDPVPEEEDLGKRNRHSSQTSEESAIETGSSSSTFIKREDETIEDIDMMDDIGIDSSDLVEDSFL
Chain of SRC (P12931 whole entry): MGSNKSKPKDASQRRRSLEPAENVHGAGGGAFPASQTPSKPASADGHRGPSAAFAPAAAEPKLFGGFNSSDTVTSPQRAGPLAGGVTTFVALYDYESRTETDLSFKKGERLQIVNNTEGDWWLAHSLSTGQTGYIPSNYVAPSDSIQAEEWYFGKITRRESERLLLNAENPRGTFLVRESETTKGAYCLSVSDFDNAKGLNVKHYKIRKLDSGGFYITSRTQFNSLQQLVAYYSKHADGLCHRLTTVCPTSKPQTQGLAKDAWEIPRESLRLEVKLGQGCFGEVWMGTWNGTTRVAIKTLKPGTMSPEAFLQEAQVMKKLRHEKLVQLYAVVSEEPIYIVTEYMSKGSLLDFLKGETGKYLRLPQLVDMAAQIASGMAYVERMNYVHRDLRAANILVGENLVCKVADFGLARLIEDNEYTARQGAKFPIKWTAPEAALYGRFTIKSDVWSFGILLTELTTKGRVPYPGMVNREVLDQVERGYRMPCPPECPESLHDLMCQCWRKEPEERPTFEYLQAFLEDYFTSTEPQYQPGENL
T3 sequence (P29317 24-976): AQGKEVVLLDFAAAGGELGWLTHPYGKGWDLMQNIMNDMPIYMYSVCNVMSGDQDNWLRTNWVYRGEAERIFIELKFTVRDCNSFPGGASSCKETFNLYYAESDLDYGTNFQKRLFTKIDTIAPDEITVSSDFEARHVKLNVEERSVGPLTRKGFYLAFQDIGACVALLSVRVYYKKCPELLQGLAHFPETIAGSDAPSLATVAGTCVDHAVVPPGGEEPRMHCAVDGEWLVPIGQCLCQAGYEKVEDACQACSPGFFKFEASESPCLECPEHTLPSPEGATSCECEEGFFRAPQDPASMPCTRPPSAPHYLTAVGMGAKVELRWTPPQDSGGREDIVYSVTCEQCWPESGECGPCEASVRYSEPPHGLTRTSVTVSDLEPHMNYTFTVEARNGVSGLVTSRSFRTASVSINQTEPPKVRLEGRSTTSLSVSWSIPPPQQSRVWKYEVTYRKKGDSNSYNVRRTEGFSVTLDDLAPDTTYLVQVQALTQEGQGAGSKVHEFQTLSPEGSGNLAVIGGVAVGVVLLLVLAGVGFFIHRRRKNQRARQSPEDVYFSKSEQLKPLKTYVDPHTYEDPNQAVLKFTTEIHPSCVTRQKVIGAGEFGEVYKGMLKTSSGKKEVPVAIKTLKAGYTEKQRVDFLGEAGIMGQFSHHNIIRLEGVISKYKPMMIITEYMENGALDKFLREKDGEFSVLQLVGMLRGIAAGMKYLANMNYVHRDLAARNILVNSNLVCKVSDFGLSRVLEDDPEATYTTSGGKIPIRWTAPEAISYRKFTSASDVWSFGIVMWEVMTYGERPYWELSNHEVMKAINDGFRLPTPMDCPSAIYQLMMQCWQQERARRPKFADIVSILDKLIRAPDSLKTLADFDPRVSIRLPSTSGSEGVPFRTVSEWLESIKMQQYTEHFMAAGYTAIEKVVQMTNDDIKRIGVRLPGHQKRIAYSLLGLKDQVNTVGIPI
T13 sequence (P10721 26-976): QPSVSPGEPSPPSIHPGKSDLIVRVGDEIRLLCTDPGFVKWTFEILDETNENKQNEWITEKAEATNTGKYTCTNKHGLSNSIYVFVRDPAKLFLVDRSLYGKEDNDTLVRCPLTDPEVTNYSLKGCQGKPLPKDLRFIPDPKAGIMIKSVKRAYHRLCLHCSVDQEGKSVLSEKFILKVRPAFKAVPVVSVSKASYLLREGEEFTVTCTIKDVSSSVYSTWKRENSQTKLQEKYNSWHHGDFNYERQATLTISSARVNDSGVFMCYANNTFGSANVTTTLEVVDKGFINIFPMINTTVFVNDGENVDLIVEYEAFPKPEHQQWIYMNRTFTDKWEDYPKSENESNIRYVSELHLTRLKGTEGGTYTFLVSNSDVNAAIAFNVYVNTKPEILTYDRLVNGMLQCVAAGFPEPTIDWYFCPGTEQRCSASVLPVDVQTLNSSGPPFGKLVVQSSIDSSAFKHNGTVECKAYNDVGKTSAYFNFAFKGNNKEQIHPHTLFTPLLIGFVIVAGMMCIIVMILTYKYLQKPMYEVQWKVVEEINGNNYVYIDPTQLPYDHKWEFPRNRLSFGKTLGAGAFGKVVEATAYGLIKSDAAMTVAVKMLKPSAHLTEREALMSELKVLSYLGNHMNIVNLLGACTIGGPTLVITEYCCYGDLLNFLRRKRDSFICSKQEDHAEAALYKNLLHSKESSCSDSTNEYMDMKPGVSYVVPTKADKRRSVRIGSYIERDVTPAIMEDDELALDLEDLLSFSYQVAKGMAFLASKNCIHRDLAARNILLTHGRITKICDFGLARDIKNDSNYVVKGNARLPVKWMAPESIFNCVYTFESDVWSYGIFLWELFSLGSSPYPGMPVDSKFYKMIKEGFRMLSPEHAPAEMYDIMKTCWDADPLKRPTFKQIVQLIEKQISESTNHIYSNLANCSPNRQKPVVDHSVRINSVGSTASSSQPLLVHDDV

SMILES: Cc1nc(Nc2ncc(C(=O)Nc3c(C)cccc3Cl)s2)cc(N2CCN(CCO)CC2)n1.O [Dasatinib, N-(2-chloro-6-methylphenyl)-2-[[6-[4-(2-hydroxyethyl)-1-piperazinyl]-2-methyl-4-pyrimidinyl]amino]-5-thiazole carboxamide monohydrate, reference compound]
- IC50 (M07e cells): 1.2 ± 0.8 nM
- effect of unlabeled Dasatinib on [18F]-5 uptake ([1]; Dasatinib 30 mg/kg IP): competitive inhibition of tracer uptake in the tumors and organs
- patients with severe myelosuppression [2]: > 50%

SMILES: CN[C@@H]1C[C@H]2O[C@@](C)([C@@H]1OC)n1c3ccccc3c3c4c(c5c6ccccc6n2c5c31)C(=O)NC4 [Staurosporine, reference compound]
- inhibition at 0.03 µM (ACK; read-out: % Inhibition of Kinase Activity, ACK): 96.4%
- inhibition at 0.3 µM (CSK; read-out: % Inhibition of Kinase Activity, CSK): 89.3%
- inhibition at 10 µM (EphA2; read-out: % Inhibition of Kinase Activity, EphA2): 92.6%
- inhibition at 10 µM (EphB4; read-out: % Inhibition of Kinase Activity, EphB4): 94.1%
- inhibition at 0.003 µM (FLT3): 96.4%
- inhibition at 0.003 µM (JAK3): 95.3%
- inhibition at 0.3 µM (MET): 90%
- inhibition at 0.003 µM (PDGFR—; read-out: % Inhibition of Kinase Activity, PDGFR—): 88.4%
- inhibition at 0.3 µM (TEC; read-out: % Inhibition of Kinase Activity, TEC): 92.5%
- inhibition at 1 µM (TYRO3): 95.3%
- inhibition at 3 µM (SRC; read-out: % Inhibition of Kinase Activity, SRC, Staurosporine at 3000 nM): 89.8%

- EC50 (EGFR): 270 nM
- EC50 (FGFR1): 390 nM
- EC50 (KIT): 1.3 nM
- EC50 (ACK; Table 3): 20 nM
- EC50 (CSK; Table 3): 5 nM
- EC50 (EphA2; Table 3): 1.9 nM
- EC50 (EphB4; Table 3): 3.1 nM
- EC50 (PDGFR—; Table 3): 16 nM
- EC50 (TEC; Table 3): 1.9 nM
- EC50 (SRC): 2.6 nM
- total blood radioactivity retained in the pellet ([3]; mouse blood centrifuged at 2200 x g after i.v. injection): about 50%
- Peak 3 [18F]-5 (16.9 min) % Radioactivity, parent ([3]; 30 min post injection): 31 ± 11%
- Peak 3 [18F]-5 (16.9 min) % Radioactivity, parent ([3]; 60 min post injection): 9 ± 3%
- Peak 3 [18F]-5 (16.9 min) % Radioactivity, parent ([3]; 120 min post injection, one trial only): 8%
- metabolism in plasma over time course ([3]; two-hour time course, HPLC of plasma): metabolized significantly
- tracer activity within the tumor xenograft by ROI analysis ([4]; 60 minutes after i.v. injection, one representative mouse): 1.1 % of the injected dose
- uptake in bone ([4]; microPET 60-75 min): no significant uptake
- K562 tumor uptake in mice ([4]; mouse, in vivo): significant K562 tumor uptake
- tumor uptake of tracer ([1]; H1975 right, H1975-DR left shoulder, before Dasatinib): tumor uptake is evident bilaterally
- EC50 (ABL): 0.6 nM
SMILES: Cc1nc(Nc2ncc(C(=O)Nc3c(C)cccc3Cl)s2)cc(N2CCN(CC[18F])CC2)n1 [[^18F]-5]
- route of clearance ([4]; microPET 60-75 min): cleared via the hepatobiliary route predominantly
